Where two headings read alike, the source gives them in different places.
Assays:
[1] = target: DPP1 in HL-60 cells (Homo sapiens, UniProt P53634); assay: DPP1 Cell IC50 assay; type: cell-based; design: host or cells: HL-60 cells; details: 60 min pre-incubation, H-Gly-Phe-AFC substrate, average of n runs
Outline: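 Intracellular DPP1 activity read as AFC fluorescence (Ex/Em 400/505 nm) after 30 min with H-Gly-Phe-AFC (500 μM stock), following 60 min compound pre-incubation at 37° C with HL-60 cells at 5×10^5 live cells per mL in PBS. IC50 by 4-parameter fit against DMSO-only controls.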

[2] = target: human DPP1 enzyme (Homo sapiens, UniProt P53634); assay: Human DPP1 Enzyme IC50 Assay; type: biochemical; design: was first proteolytically processed into its mature form using recombinant human cathepsin L; purchased R&D Systems
Outline: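 IC50 came from a four-parameter fit of activity relative to no-compound control, with fluorescence (Ex 350/Em 450 nm) read every 5 min for 90 min at 37 °C using 400 μM final H-Gly-Arg-AMC. Cathepsin L-matured human recombinant DPP1 was preincubated 10 min with compound at pH 6.0 (MES, DTT, 1% DMSO).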

[3] = Avg. IC50 (DPP1 Cell IC50 value ranges)
[4] = read-out: Avg. IC50 (DPP1 Cell IC50 value ranges)
[5] = activated recombinant human DPP1, 400 μM H-Gly-Arg-AMC, 10 minutes pre-incubation at 37° C., pH 6.0, average of n runs, read-out: Avg. IC50 (Human DPP1 enzyme IC50 value ranges)

Sequence of human DPP1 enzyme (P53634 25-134 limits assumed): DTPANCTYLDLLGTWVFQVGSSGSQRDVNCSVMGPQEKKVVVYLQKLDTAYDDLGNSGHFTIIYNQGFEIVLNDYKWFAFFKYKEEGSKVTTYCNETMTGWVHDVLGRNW
Sequence of human DPP1 enzyme (P53634 231-394 limits assumed): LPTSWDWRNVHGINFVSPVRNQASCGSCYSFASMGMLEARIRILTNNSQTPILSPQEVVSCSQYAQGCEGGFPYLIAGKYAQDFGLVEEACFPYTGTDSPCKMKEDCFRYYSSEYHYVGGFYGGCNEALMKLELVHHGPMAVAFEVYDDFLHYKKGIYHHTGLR
Sequence of human DPP1 enzyme (P53634 395-463 limits assumed): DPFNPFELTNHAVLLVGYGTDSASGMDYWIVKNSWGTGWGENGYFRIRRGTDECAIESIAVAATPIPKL
Sequence of DPP1 in HL-60 cells (P53634 25-463): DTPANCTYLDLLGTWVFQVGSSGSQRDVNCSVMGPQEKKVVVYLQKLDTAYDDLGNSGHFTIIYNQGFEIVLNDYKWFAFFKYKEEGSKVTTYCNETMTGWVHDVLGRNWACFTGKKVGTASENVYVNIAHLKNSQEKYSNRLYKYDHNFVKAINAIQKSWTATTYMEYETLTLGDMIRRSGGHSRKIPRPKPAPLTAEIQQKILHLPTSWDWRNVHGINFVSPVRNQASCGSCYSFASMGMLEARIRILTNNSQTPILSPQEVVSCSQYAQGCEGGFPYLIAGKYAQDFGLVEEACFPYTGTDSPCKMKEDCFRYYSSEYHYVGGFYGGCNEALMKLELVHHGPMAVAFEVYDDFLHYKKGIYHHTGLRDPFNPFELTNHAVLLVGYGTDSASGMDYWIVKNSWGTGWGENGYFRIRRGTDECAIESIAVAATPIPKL

| Compound | IC50 [1, 3] | IC50 [2] | IC50 [1, 4] | IC50 [2, 5] |
| --- | --- | --- | --- | --- |
| N#C[C@H](Cc1ccc2c(c1)OCc1ccc(C3CCNC3)cc1-2)NC(=O)[C@@H]1CNCCCO1 (stereo partly drawn) [Compound B1, (2S)—N-[(1S)-1-cyano-2-[9-(pyrrolidin-3-yl)-6H-benzo[c]chromen-3-yl]ethyl]-1,4-oxazepane-2-carboxamide] | > 2.5 nM | > 15 nM |  |  |
| CCCCOCCn1c(=O)oc2ccc(-c3ccc(C[C@@H](C#N)NC(=O)[C@@H]4CNC(C)C(OC)CO4)c(F)c3)cc21 (stereo partly drawn) [Compound E1, (2S)—N-[(1S)-2-{4-[3-(2-butoxyethyl)-2-oxo-1,3-benzoxazol-5-yl]-2-fluorophenyl}-1-cyanoethyl]-6-methoxy-5-methyl-1,4-oxazepane-2-carboxamide] |  |  | 1 to 2.5 nM | < 5 nM |
| CO[C@H]1CCO[C@H](C(=O)NC(C#N)Cc2cc3c(cc2F)-c2ccc(C#N)cc2CO3)CNC1 (single isomer, unassigned) [Compound B14] |  |  | > 2.5 nM | > 15 nM |
| COC1CNC[C@@H](C(=O)N[C@H](C#N)Cc2ccc(-c3ccc4nnn(C)c4c3)cc2)OC1 (single isomer, unassigned) [Compound H12-A] |  |  | > 2.5 nM | > 15 nM |
| CO[C@@H]1CCNC[C@@H](C(=O)NC(C#N)Cc2cnc(-c3ccc4c(F)nn(C)c4c3)s2)OC1 (mixture of isomers) [Compound A38, (2S,7R)—N-{1-cyano-2-[2-(3-fluoro-1-methylindazol-6-yl)-1,3-thiazol-5-yl]ethyl}-7-methoxy-1,4-oxazocane-2-carboxamide] |  |  | 1 to 2.5 nM | 5 to 15 nM |
| Cc1sc(-c2ccc(C[C@@H](C#N)NC(=O)[C@@H]3CNCCCO3)cc2)nc1-c1cc[nH]c(=O)c1 [Compound D9, (2S)—N-[(1S)-1-cyano-2-{4-[5-methyl-4-(2-oxo-1H-pyridin-4-yl)-1,3-thiazol-2-yl]phenyl}ethyl]-1,4-oxazepane-2-carboxamide] |  |  | > 2.5 nM | > 15 nM |
| C[C@@H]1NC[C@@H](C(=O)N[C@H](C#N)Cc2ccc(-c3ccc4c(F)nn(C)c4c3)cc2F)OC[C@@H]1O [Compound A166] |  |  | 1 to 2.5 nM | 5 to 15 nM |
| CO[C@@H]1CCNC[C@@H](C(=O)N[C@H](C#N)Cc2ccc(-c3cc4c(C)nc(C)cn4c3)cc2)OC1 [Compound A32, (2S,7R)—N-[(1S)-1-cyano-2-(4-{1,3-dimethylpyrrolo[1,2-a]pyrazin-7-yl}phenyl)ethyl]-7-methoxy-1,4-oxazocane-2-carboxamide] |  |  | 1 to 2.5 nM | > 15 nM |
| CN1CCC2(CCc3cc4c(cc32)-c2cc(F)c(CC(C#N)NC(=O)[C@@H]3CNCCCO3)cc2OC4)CC1 (mixture of isomers) [Compound C3, (2S)—N-(1-cyano-2-{2-fluoro-1′-methyl-8,9-dihydro-6H-spiro[indeno[5,6-c]chromene-10,4′-piperidin]-3-yl}ethyl)-1,4-oxazepane-2-carboxamide] |  |  | > 2.5 nM | < 5 nM |
| N#C[C@H](Cc1cc2c(cc1F)-c1ccc(F)cc1CO2)NC(=O)[C@@H]1CNCCCO1 [Compound B35] | > 2.5 nM | > 15 nM |  |  |
| CO[C@@H]1CCNC[C@@H](C(=O)N[C@H](C#N)Cc2cc3c(cc2F)-c2cc(C4COC4)c(F)cc2CO3)OC1 [Compound B12, (2S,7R)—N-{1-cyano-2-[2,8-difluoro-9-(oxetan-3-yl)-6H-benzo[c]chromen-3-yl]ethyl}-7-methoxy-1,4-oxazocane-2-carboxamide] |  |  | 1 to 2.5 nM | < 5 nM |
| N#C[C@H](Cc1ccc(-c2ccc3c(c2)C2(CN(C4COC4)C2)OC3=O)cc1)NC(=O)[C@@H]1CNCCCO1 [Compound 27, (2S)—N-[(1S)-1-cyano-2-{4-[1-(oxetan-3-yl)-3′-oxospiro[azetidine-3,1′-[2]benzofuran]-6′-yl]phenyl}ethyl]-1,4-oxazepane-2-carboxamide] |  |  | > 2.5 nM | > 15 nM |
| CO[C@H]1CCO[C@H](C(=O)NC(C#N)Cc2cc3cc(-c4cc5c(C)nc(C)cn5c4)ccc3s2)CNC1 (single isomer, unassigned) [Compound A46] |  |  | > 2.5 nM | > 15 nM |

From patent US20260008760A1, “DIPEPTIDYL PEPTIDASE 1 INHIBITORS AND USES THEREOF” (Insmed Incorporated, priority 2024, published 2026)
